Assay in all cases: growth of human tumour cells (NCI), 48 h
Test [1] relates to ACHN renal.
The subject of test [2] is HL-60(TB) leukemia.
The test system of test [3] is IGROV1 ovarian.
Test [4] deals with MALME-3M melanoma.
For test [5], the system named is OVCAR-3 ovarian.
Test [6] concerns OVCAR-4 ovarian.
Test [7] relates to SF-539 CNS.
In test [8] the test system is SNB-75 CNS.
Test [9] deals with HS 578T breast.
In test [10] the test system is U251 CNS.

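Each compound was tested at five concentrations against cells in 96-well plates for 48 hours. Here, GI50 denotes the concentration required for 50% inhibition of growth. TGI is the concentration that stops growth completely.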

The source of these data is PubChem BioAssay (NCI).

Turning to `Cc1nn(-c2ccccc2)c(-c2ccccc2[N+](=O)[O-])c1CC#N`, the TGI in test [1], in test [2], in [3], in test [4], in [5] and in [6] was more than 100 µM in each case. The TGI in test [7] and in test [8] was more than 100 µM throughout.
Take `O=C1NC2(CN3CCC2CC3)C(=O)N1CN(Cc1ccccc1)c1ccccc1` (centres undefined): the TGI in test [1] is more than 100 µM; in test [2], 44.7 µM; in [9], more than 100 µM; in test [3] it was more than 100 µM; in test [5], more than 100 µM; in [6], more than 100 µM. The TGI in [7], in test [8] and in test [10] was more than 100 µM each time.
Take `OC12CC/C(=N/OCc3ccccc3)CC1c1ccccc12` (centres undefined): the TGI in test [1], in [2], in [3], in test [4], in [5] and in test [6] was more than 100 µM in each case. The TGI in test [7], in test [8] and in test [10] was more than 100 µM each time.
For the compound `O=[N+]([O-])c1nccn1COCCBr`, the TGI in [1], in [2], in test [4], in test [5], in test [6] and in test [7] was more than 100 µM in each case. Besides, the TGI in test [8] and in test [10] was more than 100 µM each time.
For `CN1C(=O)C(Cl)(C(Cl)(Cl)S(=O)(=O)O)C(=O)c2ccccc21` (centres undefined), the TGI in test [1] was more than 100 µM; in [2], more than 100 µM; in test [3] it was more than 100 µM; in test [4], 76.1 µM; in test [5], more than 100 µM; in [6], more than 100 µM. In addition, the TGI in test [7], in test [8] and in test [10] was more than 100 µM throughout.
For `Nc1ccc(S(=O)(=O)NCc2nccs2)cc1`, the TGI in test [1] was 63.4 µM; in [2], 44 µM; in [9] it was 68.4 µM; in test [3], 56.8 µM; in test [5], more than 100 µM; in [6], 95.7 µM. The TGI was 36.2 µM in test [7], 58.8 µM in [8] and 47.5 µM in [10].
On to `Cc1ccc(S(=O)(=O)N=Nc2c(O)[nH]c3c(Cl)cc(Cl)cc23)cc1`, for which the TGI in [1], in test [2], in test [9], in test [3], in test [4] and in [5] was more than 100 µM in each case. Further, the TGI in test [6], in test [7] and in test [10] was more than 100 µM in each case.
Consider `C=C(C=O)CCCC(C)[C@@H]1CCC23CC12CCC1[C@@]2(C)CCC(OC(C)=O)C(C)(C)C2CC(OC2OC(COC(C)=O)C(O)C(O)C2O)[C@]13C` (some centres undefined), for which the TGI was found to be 9.78 µM in test [1]; 2.04 µM in test [2]; 7.9 µM in test [3]; 7.17 µM in test [4]; 8.21 µM in test [5]; 11.1 µM in test [6]. Also, the TGI was found to be 11.4 µM in [7], 11.4 µM in test [8] and 8.56 µM in [10].
Take `C[N+]1(C)C/C(=C\c2ccncc2)C(=O)/C(=C/c2ccncc2)C1`: the TGI is more than 100 µM in test [1]; 79.5 µM in test [2]; more than 100 µM in test [3]; more than 100 µM in test [4]; more than 100 µM in [5]; more than 100 µM in test [6]. In addition, the TGI in test [7], in test [8] and in test [10] was more than 100 µM each time.
Turning to `COC(=O)c1nc(N)[nH]c(=O)c1CCCCCc1c(C(=O)OC)nc(N)[nH]c1=O`, the TGI in [1], in [2], in [3], in test [4], in [5] and in [6] was more than 50 µM each time. The TGI in test [7], in [8] and in test [10] was more than 50 µM in each case.
Regarding `C=C=C(C(=O)OC)S(=O)c1ccc([N+](=O)[O-])cc1[N+](=O)[O-]` (centres undefined), the TGI in test [1] was more than 68.5 µM; in test [2], 45.3 µM; in test [3], 97.5 µM; in test [4], more than 86.2 µM; in [5], 63.1 µM; in test [6], 63.6 µM. Besides, the TGI in test [7] is 55.3 µM; in test [8] it was more than 69.7 µM; in test [10], 62.7 µM.
Consider `COC(=O)c1c(-c2ccccc2)sc(-c2cccc3ccccc23)c1C(=O)OC`, for which the TGI in test [1], in test [2], in [3], in test [4], in test [5] and in test [6] was more than 100 µM each time. The TGI in [7], in test [8] and in test [10] was more than 100 µM each time.
Take `CCN(CC)c1ccc2c(c1)Nc1cc(=C(C#N)C#N)c3ccccc3c1=N2`: the TGI in test [1], in test [2], in test [3], in [4], in test [5] and in test [6] was more than 100 µM throughout. Further, the TGI in test [7], in [8] and in test [10] was more than 100 µM throughout.
As for `CN=C1SC(=Nc2ccc(N(C)C)cc2)N1C`, the TGI in [2], in test [3], in test [4], in [5], in [6] and in [7] was more than 100 µM throughout. Besides, the TGI was 49.1 µM in test [8] and more than 100 µM in test [10].
Turning to `COc1ccc(CN2c3ccccc3CCc3ccccc32)cc1F`, the GI50 was 0.604 µM in [1]; 0.487 µM in test [9]; 1.57 µM in test [3]; 0.285 µM in test [5]; 0.868 µM in test [6]; 0.287 µM in [7]. The GI50 in [8] was 0.277 µM; in test [10], 0.496 µM. Further, the TGI in [1] was more than 100 µM; in [9] it was more than 100 µM; in [3], more than 100 µM; in [5], 0.785 µM; in test [6], more than 100 µM; in test [7], 0.958 µM. For the same compound, the TGI in test [8] and in test [10] was more than 100 µM in each case.
